Tests used:
[1] = system: convulsions induced by i.c.v. infusion of NMDA; test: Convulsions induced by i.c.v. infusion of NMDA (Test 2), time to onset of clonic seizures; format: in vivo, mouse (male NMRI); conditions: i.c.v. co-infusion with NMDA, mice
Procedure: The glycine antagonists are co-infused with NMDA and their anticonvulsive effect is measured by determining a) the TVSO value which represents the dose (μg/kg) of the glycine antagonist that has to be infused per minute in order to increase time to onset of clonic seizures by 50%, b) the ED50 value which represents the dose (μg/kg) of the glycine antagonist that has to be infused per minute in order to protect 50% of the animals against clonic seizures for 150 seconds after the start of i.c.v. infusion.
Convulsions induced by i.c.v. infusion of NKDA (Test 2 & 3)
58.84 μg/ml ([…] in 2.5 μl) of NMDA (Sigma) dissolved in 0.9% NaCl is co-infused i.c.v. with a glycine antagonist at a speed of 5 μl/min. Infusion is performed through a cannula placed 1 mm posterior and 1 mm lateral to the Bregma point. The cannula is injected […] into the skull of male NMRI mice weighing 25 g (range 23-27 g). Placement and length of the cannula into the skull is fixed by a plate positioned 4.3 mm from the point of the cannula. The infusion is stopped after the appearance of clonic seizures in all extremities or 150 seconds after the start time of the infusion. At least 5 doses of each glycine antagonist are tested using 8 mice per dose.

[2] = target: T1, glycine site of the NMDA receptor complex (Rattus norvegicus, UniProt P35439); test: In vitro [3H]-Glycine Binding to Rat Brain Membranes (Test 1); design: species or system rat (male Wistar); conditions: rat forebrain membranes, 4° C., 30 min, read-out: IC50, displacement of 50% of the specific binding of [3H]-glycine
T1 construct: Crude synaptic (P2) membranes are prepared from rat forebrains freshly dissected from male Wistar rats; from tissue; host or cells: forebrain of male Wistar rats, crude synaptic (P2) membranes, washed with Triton X-100
Procedure: The compounds according to the invention were tested as regards the affinity for one or more of the different types of excitatory amino acid receptors and studied in simple radioligand binding experiments. In essence, the method involves incubation of a particular selected radiolabelled ligand and the particular specific substance to be investigated with brain homogenates which contain the receptor. Measurement of receptor occupancy is made by determination of the specific radioactivity bound to the homogenate.
The glycine site binding activity of these compounds of the present invention can be illustrated by determining their capability for displacing radioactively labelled glycine from the glycine site.
The displacement activity of the compounds may be shown by determining the IC50 value which represents the concentration (μM) which causes a displacement of 50% of the specific binding of [^3 H)-glycine.
In vitro [^3 H]-Glycine Binding to Rat Brain Membranes (Test 1)
The membrane preparation and assay of specific [^3 H]-glycine binding is based upon methodology described by Haring et al. (1991) J. Neurochem. 57, 323-332 and Yoneda et al. (1991) J. Neurochem. 55, 237-244.
All steps are performed at 4° C. Buffers are prepared fresh each week from distilled, deionized water and filtered through sterile 0.2 μm membranes to eliminate artifacts due to microbial contamination. Crude synaptic (P2) membranes are prepared from rat forebrains freshly dissected from male Wistar rats and washed 4 times with low ionic strength buffer.,On the day of the assay these preparations are additionally washed with buffer containing a low concentration (0.08% g/g) of Triton X-100, and then twice more in the absence of this detergent. The procedure is aimed at the disruption of synaptic membrane vesicles and removal of endogenous amino acids.
Specific radioligand binding is measured by incubating membranes (400-600 μg/ml of protein) with […] [^3 H]-glycine in the presence or absence of 1mM of unlabelled glycine at 4° C. for 30 min. Free and bound ligand are separated by centrifugation. Each pellet is rinsed 2X and bound radioactivity measured by liquid scintillation counting. Test substances are substituted for unlabelled glycine in the assay.

Row | IC50 [2] [nM] | Compound | TV50, dose infused per minute to increase time to onset of clonic seizures by 50% [1] [mg/kg]
1 | 1000 | Cc1csc2[nH]c(=O)c(=O)[nH]c12 [Example 2, 7-Methylthieno(2,3-b)pyrazine-2,3(1H,4H)-dione] | 0.007
2 | 1270 | Cc1sc2[nH]c(=O)c(=O)[nH]c2c1C#N [Example 6, 7-Cyano-6-methylthieno[2,3-b)pyrazine-2,3(1H,4H)-dione] | 0.044
3 | 180 | CCCc1c(Cl)sc2[nH]c(=O)c(=O)[nH]c12 [Example 10, 6-Chloro-7-propylthieno[2,3-b)pyrazine-2,3(1H,4H)-dione] | 0.0094
4 | 850 | O=c1[nH]c2scc(C3CC3)c2[nH]c1=O [Example 25, 7-Cyclopropylthieno(2,3-b]pyrazine-2,3(1H,4H)-dione] | 0.076
5 | 180 | O=c1[nH]c2scc(Br)c2[nH]c1=O [Example 38, 7-Bromothieno(2,3-b)pyrazine-2,3(1H,4H)-dione] | 0.0348

Reference: patent US5284847A, “Thieno pyrazine diones, their preparation and use” (Novo Nordisk A/S, priority 1991, dated 1994)
